Experiments:
[1] = molecular target: Homeodomain-interacting protein kinase 3 (Homo sapiens, UniProt Q9H422); assay: Selectivity interaction (KinomeScan (DiscoverX)) EUB0000666a HIPK3; conditions: at 10 µM
[2] = molecular target: Ribosomal protein S6 kinase alpha-1 (Homo sapiens, UniProt Q15418); assay: Selectivity interaction (SelectScreen profiling (Invitrogen)) EUB0000607a RPS6KA1; conditions: at 2 µM
[3] = molecular target: Epidermal growth factor receptor (Homo sapiens, UniProt P00533); assay: Selectivity interaction (Radiometric kinase assay (using 10 uM ATP)) EUB0000601a EGFR
[4] = molecular target: Protein kinase C eta type (Homo sapiens) (UniProt P24723); assay: Selectivity interaction (KinomeScan (DiscoverX)) EUB0000655a PRKCH; conditions: at 10 µM
[5] = molecular target: Serine/threonine-protein kinase 25 (Homo sapiens) (UniProt O00506); assay: Selectivity interaction (KinomeScan (DiscoverX)) EUB0000045b STK25
[6] = molecular target: Insulin-like growth factor 1 receptor (Homo sapiens, UniProt P08069); assay: Selectivity interaction (KinomeScan (DiscoverX)) EUB0000045b IGF1R
[7] = molecular target: T1, Serine/threonine-protein kinase ULK2 (Homo sapiens) (UniProt Q8IYT8); assay: Selectivity interaction (KinomeScan (DiscoverX)) EUB0001079a ULK2; conditions: at 1 µM
T1 sequence (whole entry): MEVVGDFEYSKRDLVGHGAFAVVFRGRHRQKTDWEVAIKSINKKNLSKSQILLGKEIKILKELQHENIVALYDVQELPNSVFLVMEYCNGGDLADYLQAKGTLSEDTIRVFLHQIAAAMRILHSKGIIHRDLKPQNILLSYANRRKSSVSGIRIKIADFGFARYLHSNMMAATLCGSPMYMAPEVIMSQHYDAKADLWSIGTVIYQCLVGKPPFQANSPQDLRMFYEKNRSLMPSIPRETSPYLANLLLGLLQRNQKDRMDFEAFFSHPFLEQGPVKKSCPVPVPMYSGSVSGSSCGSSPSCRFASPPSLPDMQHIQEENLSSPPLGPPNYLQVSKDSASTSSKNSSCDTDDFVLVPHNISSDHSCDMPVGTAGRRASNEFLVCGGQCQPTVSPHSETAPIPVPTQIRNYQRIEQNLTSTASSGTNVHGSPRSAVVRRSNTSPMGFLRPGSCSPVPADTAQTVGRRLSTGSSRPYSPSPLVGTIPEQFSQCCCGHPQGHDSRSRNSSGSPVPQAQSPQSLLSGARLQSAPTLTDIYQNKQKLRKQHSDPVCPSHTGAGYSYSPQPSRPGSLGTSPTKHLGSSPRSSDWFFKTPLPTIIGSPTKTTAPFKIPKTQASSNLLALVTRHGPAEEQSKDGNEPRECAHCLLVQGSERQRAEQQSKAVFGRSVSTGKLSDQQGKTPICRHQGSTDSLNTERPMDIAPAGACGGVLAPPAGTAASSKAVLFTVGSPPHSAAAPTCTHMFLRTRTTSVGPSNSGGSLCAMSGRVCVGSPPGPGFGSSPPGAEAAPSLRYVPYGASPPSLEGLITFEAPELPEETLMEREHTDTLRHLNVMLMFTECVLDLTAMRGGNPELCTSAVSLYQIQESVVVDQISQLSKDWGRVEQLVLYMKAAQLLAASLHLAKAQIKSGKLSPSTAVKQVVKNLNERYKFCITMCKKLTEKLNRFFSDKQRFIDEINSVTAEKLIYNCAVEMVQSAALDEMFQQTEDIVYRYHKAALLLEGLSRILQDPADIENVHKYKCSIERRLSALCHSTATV

[8] = molecular target: T2, Cyclin-G-associated kinase (Homo sapiens) (UniProt O14976); assay: Selectivity interaction (KinomeScan (DiscoverX)) EUB0000092b GAK; conditions: at 10 µM
T2 sequence (whole entry): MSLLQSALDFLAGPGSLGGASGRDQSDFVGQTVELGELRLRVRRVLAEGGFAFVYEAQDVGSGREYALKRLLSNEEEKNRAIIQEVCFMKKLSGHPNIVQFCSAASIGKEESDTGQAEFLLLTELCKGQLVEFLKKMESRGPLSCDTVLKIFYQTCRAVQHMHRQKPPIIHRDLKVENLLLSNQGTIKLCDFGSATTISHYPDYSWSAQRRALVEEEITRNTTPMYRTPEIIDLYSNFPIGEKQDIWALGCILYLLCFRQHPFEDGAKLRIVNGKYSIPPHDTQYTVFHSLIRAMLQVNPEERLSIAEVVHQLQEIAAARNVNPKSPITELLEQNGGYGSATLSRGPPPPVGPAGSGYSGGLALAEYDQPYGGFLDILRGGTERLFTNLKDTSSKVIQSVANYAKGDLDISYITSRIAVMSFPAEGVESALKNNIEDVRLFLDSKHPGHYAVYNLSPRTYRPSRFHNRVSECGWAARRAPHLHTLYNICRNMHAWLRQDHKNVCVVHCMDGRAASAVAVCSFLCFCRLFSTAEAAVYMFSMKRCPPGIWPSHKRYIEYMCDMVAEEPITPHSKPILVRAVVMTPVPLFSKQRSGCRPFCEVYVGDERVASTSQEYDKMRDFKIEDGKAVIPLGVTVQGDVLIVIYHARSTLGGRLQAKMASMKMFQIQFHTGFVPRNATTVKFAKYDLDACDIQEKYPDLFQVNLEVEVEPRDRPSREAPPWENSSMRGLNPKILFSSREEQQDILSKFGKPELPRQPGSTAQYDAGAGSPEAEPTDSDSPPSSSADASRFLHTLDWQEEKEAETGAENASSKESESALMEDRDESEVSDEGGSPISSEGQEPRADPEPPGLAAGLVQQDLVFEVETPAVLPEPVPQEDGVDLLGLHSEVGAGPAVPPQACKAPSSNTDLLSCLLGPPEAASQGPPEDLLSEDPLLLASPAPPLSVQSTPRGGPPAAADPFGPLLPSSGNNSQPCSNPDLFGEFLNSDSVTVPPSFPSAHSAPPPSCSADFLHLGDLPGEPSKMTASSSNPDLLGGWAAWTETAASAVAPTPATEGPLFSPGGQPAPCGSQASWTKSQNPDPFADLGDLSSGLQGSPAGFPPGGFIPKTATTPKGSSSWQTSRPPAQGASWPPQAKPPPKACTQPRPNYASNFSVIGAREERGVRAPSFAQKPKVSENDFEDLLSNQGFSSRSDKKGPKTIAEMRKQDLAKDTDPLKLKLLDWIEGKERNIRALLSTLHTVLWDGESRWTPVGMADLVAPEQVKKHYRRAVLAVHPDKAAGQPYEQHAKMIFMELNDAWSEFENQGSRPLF

Chain of Insulin-like growth factor 1 receptor (P08069 31-736 limits assumed): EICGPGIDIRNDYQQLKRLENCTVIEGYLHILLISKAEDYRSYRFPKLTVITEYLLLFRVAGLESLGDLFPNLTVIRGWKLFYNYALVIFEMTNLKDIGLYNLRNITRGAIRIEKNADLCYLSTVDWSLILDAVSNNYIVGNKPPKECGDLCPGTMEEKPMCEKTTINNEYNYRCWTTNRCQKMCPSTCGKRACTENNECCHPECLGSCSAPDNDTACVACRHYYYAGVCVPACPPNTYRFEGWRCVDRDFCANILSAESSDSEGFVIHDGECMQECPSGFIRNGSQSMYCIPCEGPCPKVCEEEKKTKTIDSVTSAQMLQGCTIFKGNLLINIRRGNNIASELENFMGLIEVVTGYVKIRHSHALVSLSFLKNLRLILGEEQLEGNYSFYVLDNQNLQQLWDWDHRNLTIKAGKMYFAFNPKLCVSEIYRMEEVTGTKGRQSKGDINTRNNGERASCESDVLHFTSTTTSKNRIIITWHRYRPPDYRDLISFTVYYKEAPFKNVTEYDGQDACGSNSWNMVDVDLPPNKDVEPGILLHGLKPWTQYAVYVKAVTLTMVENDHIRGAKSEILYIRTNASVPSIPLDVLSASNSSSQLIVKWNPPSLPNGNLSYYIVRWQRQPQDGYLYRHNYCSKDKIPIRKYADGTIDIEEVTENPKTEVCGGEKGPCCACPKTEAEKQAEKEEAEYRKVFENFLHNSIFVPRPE
Chain of Insulin-like growth factor 1 receptor (P08069 741-1367 limits assumed): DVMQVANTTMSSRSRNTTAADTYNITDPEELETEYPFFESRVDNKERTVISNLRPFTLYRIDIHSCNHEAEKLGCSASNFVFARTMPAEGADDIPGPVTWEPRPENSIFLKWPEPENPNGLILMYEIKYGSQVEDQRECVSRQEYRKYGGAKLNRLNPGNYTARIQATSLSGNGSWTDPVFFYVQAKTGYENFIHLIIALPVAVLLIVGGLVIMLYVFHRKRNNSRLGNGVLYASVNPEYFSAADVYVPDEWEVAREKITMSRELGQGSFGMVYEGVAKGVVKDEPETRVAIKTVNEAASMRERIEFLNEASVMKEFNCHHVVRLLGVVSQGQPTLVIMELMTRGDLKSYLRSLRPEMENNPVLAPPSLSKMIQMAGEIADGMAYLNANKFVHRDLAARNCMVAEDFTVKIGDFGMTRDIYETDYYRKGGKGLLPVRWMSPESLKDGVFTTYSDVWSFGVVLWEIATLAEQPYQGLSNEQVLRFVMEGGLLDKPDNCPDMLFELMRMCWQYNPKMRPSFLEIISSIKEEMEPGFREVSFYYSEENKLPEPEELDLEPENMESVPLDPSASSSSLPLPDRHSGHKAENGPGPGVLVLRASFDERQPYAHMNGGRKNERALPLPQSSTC
Chain of Serine/threonine-protein kinase 25 (Homo sapiens) (O00506 whole entry, looked up): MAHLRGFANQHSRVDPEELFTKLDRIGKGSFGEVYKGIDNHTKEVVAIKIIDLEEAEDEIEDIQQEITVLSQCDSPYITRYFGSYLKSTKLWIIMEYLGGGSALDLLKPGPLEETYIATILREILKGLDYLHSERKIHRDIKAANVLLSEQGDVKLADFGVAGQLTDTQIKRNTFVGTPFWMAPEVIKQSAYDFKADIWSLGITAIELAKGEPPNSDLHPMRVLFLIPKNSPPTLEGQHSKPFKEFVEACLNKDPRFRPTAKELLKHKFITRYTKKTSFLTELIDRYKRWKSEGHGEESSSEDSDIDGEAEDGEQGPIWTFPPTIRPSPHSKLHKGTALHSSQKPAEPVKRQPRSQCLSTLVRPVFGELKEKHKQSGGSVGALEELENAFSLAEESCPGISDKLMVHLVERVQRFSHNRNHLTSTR
Chain of Protein kinase C eta type (Homo sapiens) (P24723 whole entry): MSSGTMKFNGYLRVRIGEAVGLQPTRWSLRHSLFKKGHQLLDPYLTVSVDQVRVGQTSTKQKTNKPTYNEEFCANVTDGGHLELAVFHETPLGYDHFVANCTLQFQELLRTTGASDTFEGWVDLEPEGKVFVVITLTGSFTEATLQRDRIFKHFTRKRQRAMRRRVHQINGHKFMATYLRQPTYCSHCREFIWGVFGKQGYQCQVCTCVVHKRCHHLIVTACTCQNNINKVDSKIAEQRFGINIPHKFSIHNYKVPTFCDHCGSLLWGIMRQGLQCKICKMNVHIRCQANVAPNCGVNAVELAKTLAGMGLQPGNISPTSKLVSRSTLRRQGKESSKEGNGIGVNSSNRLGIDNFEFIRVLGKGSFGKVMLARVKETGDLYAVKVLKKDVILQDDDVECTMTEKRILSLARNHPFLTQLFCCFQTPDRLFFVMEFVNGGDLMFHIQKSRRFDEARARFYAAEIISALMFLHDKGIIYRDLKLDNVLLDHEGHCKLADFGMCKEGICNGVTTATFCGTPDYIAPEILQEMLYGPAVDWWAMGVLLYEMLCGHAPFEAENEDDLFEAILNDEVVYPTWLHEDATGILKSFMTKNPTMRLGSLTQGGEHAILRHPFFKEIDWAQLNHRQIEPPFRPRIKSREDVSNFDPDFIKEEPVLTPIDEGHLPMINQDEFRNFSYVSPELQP
Chain of Homeodomain-interacting protein kinase 3 (Q9H422 whole entry, looked up): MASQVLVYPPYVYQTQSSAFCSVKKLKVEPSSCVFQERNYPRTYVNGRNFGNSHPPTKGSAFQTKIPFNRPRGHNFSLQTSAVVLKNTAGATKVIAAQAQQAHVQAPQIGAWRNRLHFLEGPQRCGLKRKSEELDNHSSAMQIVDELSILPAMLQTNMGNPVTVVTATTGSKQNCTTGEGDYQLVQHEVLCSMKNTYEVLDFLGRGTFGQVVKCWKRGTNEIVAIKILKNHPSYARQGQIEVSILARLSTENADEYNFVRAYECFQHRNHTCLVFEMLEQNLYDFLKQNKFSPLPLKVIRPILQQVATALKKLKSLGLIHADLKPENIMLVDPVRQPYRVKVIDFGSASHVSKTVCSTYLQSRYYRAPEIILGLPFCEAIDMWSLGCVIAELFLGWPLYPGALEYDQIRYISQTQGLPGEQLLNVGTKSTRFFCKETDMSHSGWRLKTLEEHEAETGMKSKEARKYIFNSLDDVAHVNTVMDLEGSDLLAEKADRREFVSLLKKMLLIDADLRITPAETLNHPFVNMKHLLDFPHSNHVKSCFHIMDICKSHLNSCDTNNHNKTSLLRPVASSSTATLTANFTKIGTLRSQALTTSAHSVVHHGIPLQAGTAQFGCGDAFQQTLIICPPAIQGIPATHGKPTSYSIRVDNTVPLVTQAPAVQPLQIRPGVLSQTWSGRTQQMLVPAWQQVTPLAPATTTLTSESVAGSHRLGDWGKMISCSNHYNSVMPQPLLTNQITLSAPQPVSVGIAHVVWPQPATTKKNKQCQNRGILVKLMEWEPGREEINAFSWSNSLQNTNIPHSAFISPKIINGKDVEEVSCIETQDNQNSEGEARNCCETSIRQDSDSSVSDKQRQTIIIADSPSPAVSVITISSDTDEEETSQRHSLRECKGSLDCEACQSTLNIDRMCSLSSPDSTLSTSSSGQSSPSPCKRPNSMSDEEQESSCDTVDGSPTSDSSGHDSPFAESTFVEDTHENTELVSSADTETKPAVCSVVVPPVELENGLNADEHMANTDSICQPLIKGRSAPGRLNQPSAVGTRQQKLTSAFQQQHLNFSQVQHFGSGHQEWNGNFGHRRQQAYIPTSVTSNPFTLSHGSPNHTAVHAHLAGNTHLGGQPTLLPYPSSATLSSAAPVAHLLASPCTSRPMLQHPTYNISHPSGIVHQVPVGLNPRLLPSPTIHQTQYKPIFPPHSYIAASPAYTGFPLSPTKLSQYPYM
Chain of Ribosomal protein S6 kinase alpha-1 (Q15418 whole entry): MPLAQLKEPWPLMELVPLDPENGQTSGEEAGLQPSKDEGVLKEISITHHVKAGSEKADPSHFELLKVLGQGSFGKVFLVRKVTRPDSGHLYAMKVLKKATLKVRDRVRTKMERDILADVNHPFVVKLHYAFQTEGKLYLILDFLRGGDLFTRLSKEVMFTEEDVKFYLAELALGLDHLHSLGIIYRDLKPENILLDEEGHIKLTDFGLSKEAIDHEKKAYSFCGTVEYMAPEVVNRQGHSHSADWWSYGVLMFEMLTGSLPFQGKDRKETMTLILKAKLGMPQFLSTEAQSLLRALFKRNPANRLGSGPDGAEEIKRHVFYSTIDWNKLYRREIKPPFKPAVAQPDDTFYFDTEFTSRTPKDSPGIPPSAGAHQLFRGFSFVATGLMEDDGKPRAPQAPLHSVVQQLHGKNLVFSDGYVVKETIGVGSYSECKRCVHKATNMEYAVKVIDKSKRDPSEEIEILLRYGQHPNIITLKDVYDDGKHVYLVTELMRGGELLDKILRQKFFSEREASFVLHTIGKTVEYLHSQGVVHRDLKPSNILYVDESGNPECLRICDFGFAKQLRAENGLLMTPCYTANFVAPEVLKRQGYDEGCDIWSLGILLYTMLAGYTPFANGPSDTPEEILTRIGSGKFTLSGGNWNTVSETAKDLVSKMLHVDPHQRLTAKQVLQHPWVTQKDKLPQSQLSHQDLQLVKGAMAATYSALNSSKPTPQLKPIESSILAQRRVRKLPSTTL

**Q.** For `O=C(NOC[C@H](O)CO)c1ccc(F)c(F)c1Nc1ccc(I)cc1F`, which % of control [1] is on record?
**A.** Its % of control is 49%.

**Q.** For `CNC(=O)Nc1ccc(-c2nc(N3CC4CCC(C3)O4)c3cnn(C4CCC5(CC4)OCCO5)c3n2)cc1`, which % of inhibition [2] is on record?
**A.** Its % of inhibition is 4%.

**Q.** For `CCc1cc(Nc2nccc(-c3c(-c4ccc(OC)c(C(=O)Nc5c(F)cccc5F)c4)nc4ccccn34)n2)c(OC)cc1N1CCC(N2CCN(S(C)(=O)=O)CC2)CC1`, which IC50 [3] is on record?
**A.** Its IC50 is over 10 µM.

**Q.** How did the % of control [4] turn out when `CN(C)CCOc1ccc(-c2nc(-c3ccncc3)c(-c3ccc4c(c3)CC/C4=N\O)[nH]2)cc1` was run?
**A.** Its % of control is 100%.

**Q.** Which % of control ([5]; at 1 µM) does the source give for `C=CC(=O)Nc1cc(-n2c(=O)ccc3cnc4ccc(-c5ccc(NS(C)(=O)=O)cc5)cc4c32)ccc1C` here?
**A.** Its % of control is 100%.

**Q.** What about the % of control ([5]; at 10 µM) of the same molecule?
**A.** Its % of control is 65%.

**Q.** What about the % of control ([6]; at 1 µM) of the same molecule?
**A.** Its % of control is 100%.

**Q.** And the % of control ([6]; at 10 µM)?
**A.** Its % of control is 80%.

**Q.** `Nc1cnc(N2CCc3cc(S(=O)(=O)Nc4c(F)cc(Cl)cc4F)cc(N4CCCC4=O)c32)nc1` [TP-020n] was tested. Which % of control [7] did it give?
**A.** The % of control was 100%.

**Q.** With `CCC(=O)N1CCN(c2ccc(-n3c(=O)ccc4cnc5ccc(-c6cnc7ccccc7c6)cc5c43)cc2C(F)(F)F)CC1` as the molecule, how does the % of control [8] read?
**A.** Its % of control is 57%.

From ChEMBL document CHEMBL5465560, “Selectivity Literature for EUbOPEN Chemogenomic Library” (2024)
